Test results reported in US9334267B2, “RAF inhibitor compounds” (Deciphera Pharmaceuticals, LLC, priority 2012, dated 2016).

Tests used:
human wild type C-Raf = molecular target: T1, human wild type C-Raf (Homo sapiens, UniProt P04049); assay: Enzymatic assay of C-Raf kinase activity (Raf/MEK1 ATPase, coupled PK/LDH, A340); assay type: biochemical; conditions: read-out: Enzyme IC50, nM C-Raf
T1 construct: made in house
Description: Test compounds are evaluated for their inhibitory activities against one or more of human wild type B-Raf, human wild type C-Raf, human B-Raf V600E, human B-Raf V600E+T529I or human B-Raf V600E+G468A. T529I is a threonine to isoleucine B-Raf gatekeeper mutation and G468A is a B-Raf secondary mutation at G1403C in exon 11. The enzymatic assays of B-Raf, C-Raf and B-Raf mutations evaluate a property of Raf and MEK1 complex, which in the presence of ATP, catalyzes an enhanced ATP hydrolysis (Rominger, et al, Arch. Biochem. Biophys. 2007, 464: 130-137; US Patent Publication No. 2006/0211073). The ADP formed is monitored by the well-known coupled PK/LDH (pyruvate kinase/lactate dehydrogenase) system in the form of NADH oxidation, which can be monitored and detected spectrophotometrically by absorbance at 340 nm (A340; for principal of the method see Schindler et al, Science, 2000, 289: 1938-1942). Raf activated MEK1 ATPase activity is a property shared by all forms of Raf proteins.
Test compounds are evaluated for their inhibitory activities against one or more of wild type B-Raf, wild type C-Raf, B-Raf V600E, B-Raf V600E+T529I and B-Raf V600E+G468A. T529I is a B-Raf gatekeeper mutation and G468A is a B-Raf secondary mutation. The enzymatic assays of B-Raf, C-Raf and B-Raf mutations evaluate a property of Raf and MEK1 complex, which in the presence of ATP, catalyzes an enhanced ATP hydrolysis (Rominger, et al, Arch. Biochem. Biophys. 2007, 464: 130-137). The ADP formed is monitored by the well-known coupled PK/LDH (pyruvate kinase/lactate dehydrogenase) system in the form of NADH oxidation, which can be monitored and detected by absorbance at 340 nm (A340; for principal of the method see Schindler et al, Science, 2000, 289: 1938-1942). Raf activated MEK1 ATPase activity is a property shared by all forms of Raf proteins. In the B-Raf wild type enzymatic assay, the reaction mixture contains 1.2 nM B-Raf, 30 nM MEK1, 1000 uM ATP, 3.5 units (per 100 ul) of PK, 5 units (per 100 ul) of LDH, 1 mM phosphoenol pyruvate (PEP), and 280 uM of NADH. In the C-Raf assay, the reaction mixture contains 0.6 nM C-Raf, 26 nM MEK1, 2000 uM ATP, and the same amount of PK, LDH, PEP and NADH as above. In the B-Raf V600E assay, the reaction mixture contains […] B-Raf V600E, 26 nM MEK1, 200 uM ATP and the same amount of PK, LDH, PEP and NADH as above. In the B-RafV600E+T529I assay, the reaction mixture contains 6.2 nM B-Raf V600E+T529I, 30 nM MEK1, 200 uM ATP and the same amount of PK, LDH, PEP and NADH as above. In the B-Raf V600E+G468A assay, the reaction mixture contains 3.5 nM B-Raf, 30 nM MEK1, 200 uM ATP and the same amount of PK, LDH, PEP and NADH as above. All assays are started by mixing the above mixture with test compound and monitoring at A340 continuously for approximately 5 hr. […] In the aforementioned assays, the enzyme constructs can be screened prior to or after cleavage of the N-terminal purification tag.

human wild type c-KIT = molecular target: T2, human wild type c-KIT (Homo sapiens, UniProt P10721); assay: Enzymatic assay of c-Kit kinase activity (poly E4Y phosphorylation, coupled PK/LDH); assay type: biochemical
T2 construct: GST (N); made in house
Description: c-Kit is an important oncogene, and its overexpression and genetic mutations often occur in melanoma and gastrointestinal stromal tumor (GIST) patients. In the c-Kit enzymatic assay, the phosphorylation of poly E4Y by ATP catalyzed by human c-Kit is monitored spectrophotometrically. The ADP produced from the kinase reaction is coupled to pyruvate kinase/lactate dehydrogenase (PK/LDH) reactions where NAD is formed from pyruvate and NADH. NADH can be detected by absorbance at 340 nm, as described above for enzymatic assays of kinase activities of B-Raf, C-Raf and B-Raf mutations.
The assay reaction mixture includes 6 nM human wild type c-KIT, 1 mg/mL Poly (Glu,Tyr) (Sigma), 1 mM Phosphoenol-pyruvate, 280 μM NADH, 5 U/3.5 U (per 100 ul) Pyruvate Kinase/Lactate Dehydrogenase, 85 mM Tris, pH 7.5, 17 mM MgCl2, 0.0042% Triton® X-100, 0.005% BSA, 1% DMSO. Test compound is incubated with the reaction mixture for 0.5 hour before adding 200 μM ATP to start the reaction at 30° C.

A375 cells = assay: A375 cell proliferation assay (CellTiter-Blue/resazurin); assay type: cell-based; conditions: Homo sapiens, A-375, V600E mutation, read-out: Cell Proliferation Inhibition IC50, nM A375
Description: A375 cells (catalog #CRL-1619) are obtained from the American Type Culture Collection (ATCC, Manassas, Va.). Briefly, cells are grown in DMEM High Glucose supplemented with 10% characterized fetal bovine serum (Invitrogen, Carlsbad, Calif.) and 1% Penicillin/Streptomycin/L-Glutamine at 37 degrees Celsius, 5% CO2, and 95% humidity. Cells are allowed to expand until reaching 70-95% confluency at which point they are subcultured or harvested for assay use. A serial dilution of test compound is dispensed into a 384-well black clear bottom plate in triplicate. Six hundred twenty-five cells are added per well in 50 μL complete growth medium in the 384-well plate. Plates are incubated for 67 hours at 37 degrees Celsius, 5% CO2, and 95% humidity. At the end of the incubation period, 10 μL of a 440 μM solution of resazurin (Sigma, St. Louis, Mo.) in PBS is added to each well of the plate and plates are incubated for an additional 5 hours at 37 degrees Celsius, 5% CO2, and 95% humidity. Plates are read on a Synergy2 reader (Biotek, Winooski, Vt.) using an excitation of 540 nm and an emission of 600 nm. Data is analyzed using Prism software (Graphpad, San Diego, Calif.) to calculate IC50 values.
The A375, HT-29, and Colo-205 cells (ATCC) harbor a V600E mutation.

HCT-116 cells = assay: HCT-116 cell proliferation assay (resazurin); assay type: cell-based; conditions: Homo sapiens, K-Ras mutation B-Raf wild type, read-out: Cell Proliferation Inhibition IC50, nM HCT-116
Sk-Mel-2 cells = assay: SK-Mel-2 cell proliferation assay (resazurin); assay type: cell-based; conditions: Homo sapiens, N-Ras mutation B-Raf wild type, read-out: Cell Proliferation Inhibition IC50, nM SK-Mel-2

T2 sequence (P10721 26-976): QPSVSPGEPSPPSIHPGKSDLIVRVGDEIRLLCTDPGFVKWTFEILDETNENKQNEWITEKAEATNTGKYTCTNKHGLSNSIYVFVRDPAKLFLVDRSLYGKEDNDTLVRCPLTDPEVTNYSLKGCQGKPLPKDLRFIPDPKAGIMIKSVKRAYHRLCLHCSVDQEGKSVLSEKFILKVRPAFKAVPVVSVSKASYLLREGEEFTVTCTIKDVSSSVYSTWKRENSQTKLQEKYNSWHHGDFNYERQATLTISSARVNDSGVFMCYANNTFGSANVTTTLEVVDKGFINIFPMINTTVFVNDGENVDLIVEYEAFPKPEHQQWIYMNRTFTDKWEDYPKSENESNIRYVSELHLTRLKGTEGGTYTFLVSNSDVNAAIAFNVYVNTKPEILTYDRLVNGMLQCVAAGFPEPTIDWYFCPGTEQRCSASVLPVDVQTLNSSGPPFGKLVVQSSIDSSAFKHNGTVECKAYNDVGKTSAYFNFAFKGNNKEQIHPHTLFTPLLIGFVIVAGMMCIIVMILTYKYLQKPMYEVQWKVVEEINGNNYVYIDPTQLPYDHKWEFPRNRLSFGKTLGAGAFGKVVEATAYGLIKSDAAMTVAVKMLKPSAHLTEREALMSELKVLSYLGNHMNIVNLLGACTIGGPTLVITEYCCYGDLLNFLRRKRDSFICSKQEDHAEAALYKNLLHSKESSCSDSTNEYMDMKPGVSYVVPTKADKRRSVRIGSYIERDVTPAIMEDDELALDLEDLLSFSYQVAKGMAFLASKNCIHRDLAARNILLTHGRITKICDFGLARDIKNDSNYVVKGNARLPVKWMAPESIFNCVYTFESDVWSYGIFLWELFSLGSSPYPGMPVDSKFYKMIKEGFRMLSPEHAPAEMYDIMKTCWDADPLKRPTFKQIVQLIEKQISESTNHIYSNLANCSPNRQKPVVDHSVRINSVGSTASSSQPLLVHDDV
T1 sequence (P04049 whole entry): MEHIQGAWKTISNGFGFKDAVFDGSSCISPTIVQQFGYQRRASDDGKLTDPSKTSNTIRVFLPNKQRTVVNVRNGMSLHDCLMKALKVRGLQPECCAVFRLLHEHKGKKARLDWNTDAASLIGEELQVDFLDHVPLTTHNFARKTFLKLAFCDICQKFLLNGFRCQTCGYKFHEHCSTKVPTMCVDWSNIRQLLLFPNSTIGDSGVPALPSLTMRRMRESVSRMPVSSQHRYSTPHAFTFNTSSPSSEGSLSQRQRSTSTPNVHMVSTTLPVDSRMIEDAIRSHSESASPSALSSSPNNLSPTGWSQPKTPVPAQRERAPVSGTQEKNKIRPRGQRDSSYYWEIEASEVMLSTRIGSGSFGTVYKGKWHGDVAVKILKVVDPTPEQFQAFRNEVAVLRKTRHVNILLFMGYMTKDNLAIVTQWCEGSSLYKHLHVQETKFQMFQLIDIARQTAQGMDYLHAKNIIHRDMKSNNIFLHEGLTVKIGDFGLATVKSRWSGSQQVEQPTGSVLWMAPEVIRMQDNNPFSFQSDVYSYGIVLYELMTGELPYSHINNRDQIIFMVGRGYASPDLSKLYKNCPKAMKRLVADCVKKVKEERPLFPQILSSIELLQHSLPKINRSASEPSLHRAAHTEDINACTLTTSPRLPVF

| Structure (SMILES) | IC50 (human wild type C-Raf) [nM] | IC50 (human wild type c-KIT) [µM] | IC50 (A375 cells) [nM] | IC50 (HCT-116 cells) [nM] | IC50 (Sk-Mel-2 cells) [nM] |
| --- | --- | --- | --- | --- | --- |
| CNc1ncc2cc(-c3cc(NC(=O)NCCC(C)(C)C)c(F)cc3F)c(C)nc2n1 [Example 1, 1-(2,4-Difluoro-5-(7-methyl-2-(methylamino)pyrido[2,3-d]pyrimidin-6-yl)phenyl)-3-(3,3-dimethylbutyl)urea] | < 150 | < 0.15 | < 100 | 100 to 1000 | 100 to 1000 |
| CNc1ncc2cc(-c3ccc(F)c(NC(=O)NCCC(C)(C)C)c3)c(C)nc2n1 [Example 2, 1-(3,3-Dimethylbutyl)-3-(2-fluoro-5-(7-methyl-2-(methylamino)pyrido[2,3-d]pyrimidin-6-yl)phenyl)urea] | < 150 | < 0.15 | < 100 | 100 to 1000 | < 100 |
| CNc1ncc2cc(-c3cc(NC(=O)NCCC(C)(C)C#N)c(F)cc3C)c(C)nc2n1 [Example 3, 1-(3-Cyano-3-methylbutyl)-3-(2-fluoro-4-methyl-5-(7-methyl-2-(methylamino)pyrido[2,3-d]pyrimidin-6-yl)phenyl)urea] | < 150 | < 0.15 | < 100 | 100 to 1000 | 100 to 1000 |
| COCCNc1ncc2cc(-c3cc(NC(=O)NCCC(C)(C)C)c(F)cc3C)c(C)nc2n1 [Example 5, 1-(3,3-Dimethylbutyl)-3-(2-fluoro-5-(2-((2-methoxyethyl)amino)-7-methylpyrido[2,3-d]pyrimidin-6-yl)-4-methylphenyl)urea] | < 150 | < 0.15 | < 100 | 100 to 1000 | 100 to 1000 |
| CNc1ncc2cc(-c3cc(NC(=O)NC4CC(C)(C)C4)c(F)cc3C)c(C)nc2n1 [Example 6, 1-(3,3-Dimethylcyclobutyl)-3-(2-fluoro-4-methyl-5-(7-methyl-2-(methylamino)pyrido[2,3-d]pyrimidin-6-yl)phenyl)urea] | < 150 | < 0.15 | < 100 | 100 to 1000 | < 100 |
| CNc1ncc2cc(-c3cc(NC(=O)NC4CC(C)(C)C4)c(F)cc3F)c(C)nc2n1 [Example 7, 1-(2,4-Difluoro-5-(7-methyl-2-(methylamino)pyrido[2,3-d]pyrimidin-6-yl)phenyl)-3-(3,3-dimethylcyclobutyl)urea] | < 150 | < 0.15 | < 100 | 100 to 1000 | < 100 |
| CNc1ncc2cc(-c3cc(NC(=O)NCC(O)C(C)(C)C)c(F)cc3C)cnc2n1 (centres unmarked) [Example 8, 1-[2-Fluoro-4-methyl-5-(2-methylaminopyrido[2,3-d]pyrimidin-6-yl)phenyl]-3-(2-hydroxy-3,3-dimethyl-butyl)urea] | < 150 | < 0.15 | 100 to 1000 | 1000 to 10000 | 100 to 1000 |
| CNc1ncc2cc(-c3cc(NC(=O)NCC4CC4(C)C)c(F)cc3C)cnc2n1 (centres unmarked) [Example 9] | < 150 | < 0.15 | 100 to 1000 | 1000 to 10000 | 100 to 1000 |
| Cc1cc(F)c(NC(=O)NCC(O)C(C)(C)C)cc1-c1cc2cnc(N)nc2nc1C (centres unmarked) [Example 10] | < 150 | < 0.15 | 100 to 1000 | 1000 to 10000 | 1000 to 10000 |
| CNc1ncc2cc(-c3cc(NC(=O)NC[C@H](O)C(C)(C)C)c(F)cc3C)cnc2n1 [Example 18, 1-[2-Fluoro-4-methyl-5-(2-methylaminopyrido[2,3-d]pyrimidin-6-yl)phenyl]-3-[(2R)-2-hydroxy-3,3-dimethyl-butyl]urea] | < 150 | – | 100 to 1000 | 100 to 1000 | 100 to 1000 |
| CNc1ncc2cc(-c3cc(NC(=O)NC[C@@H](O)C(C)(C)C)c(F)cc3C)cnc2n1 [Example 19, 1-[2-fluoro-4-methyl-5-(2-methylaminopyrido[2,3-d]pyrimidin-6-yl)phenyl]-3-[(2S)-2-hydroxy-3,3-dimethyl-butyl]urea] | < 150 | – | 100 to 1000 | 1000 to 10000 | 100 to 1000 |
